{"source": "patent US11312718B2", "about": "“Formulations of (S)-3-(1-(9H-purin-6-ylamino)ethyl)-8-chloro-2-phenylisoquinolin-1(2H)-one” (Infinity Pharmaceuticals, Inc., priority 2011, dated 2022)", "key": {"[1]": {"test": "Dynamic vapor sorption (DVS) / moisture sorption analysis", "format": "physicochemical", "conditions": "for hygroscopicity / moisture uptake at 60% RH / moisture uptake at 90% RH: DVS; for moisture uptake at 60% RH / moisture uptake at 90% RH: about 25° C.", "description": "Compounds and polymorphs provided herein can be characterized by moisture sorption analysis. This analysis was performed using a Hiden IGAsorp Moisture Sorption instrument. Moisture sorption experiments were carried out at about 25° C. by performing an adsorption scan from about 40% to about 90% RH in steps of about 10% RH and a desorption scan from about […] to about 0% RH in steps of about −10% RH. A second adsorption scan from about 10% to about 40% RH was performed to determine the moisture uptake from a drying state to the starting humidity. Samples were allowed to equilibrate for about four hours at each point or until an asymptotic weight was reached. After the isothermal sorption scan, samples were dried for about one hour at elevated temperature (about 60° C.) to obtain the dry weight. XRPD analysis on the material following moisture sorption was performed to determine the solid form.\nDynamic vapor sorption (DVS) analysis was performed on polymorph Forms A, B, C, D, and E using the DVS instrument and parameters as described above. […] Hysteresis indicative of hemi-hydrate formation was observed."}, "[2]": {"test": "Salt screen: solubility in water", "format": "physicochemical", "source_text": "Salts of a compound of Formula (I) were formed with L-tartaric acid, p-toluenesulfonic acid, D-glucaronic acid, ethane-1,2-disulfonic acid (EDSA), 2-naphthalenesulfonic acid (NSA), hydrochloric acid (HCl) (mono and bis), hydrobromic acid (HBr), citric acid, naphthalene-1,5-disulfonic acid (NDSA), DL-mandelic acid, fumaric acid, sulfuric acid, maleic acid, methanesulfonic acid (MSA), benzenesulfonic acid (BSA), ethanesulfonic acid (ESA), L-malic acid, phosphoric acid, and aminoethanesulfonic acid (taurine)."}, "[3]": {"test": "Thermal stability (60° C.)", "conditions": "for Thermal stability (60° C.): after 1 week; for polymorph Form changes by XRPD: held at 60° C. for 10 days", "experimental": "Forms A, B, C, D, and E were held at 60° C. for 10 days followed by analysis by XRPD. In each case, 8 mL vials were charged with approximately 20 mg of material, with the exception of Form B for which 10 mg of material was charged. Samples equilibrated in an oven for 10 days."}, "[4]": {"test": "Hold in humidity chambers at 9% RH and 95% RH", "format": "physicochemical", "conditions": "after 1 week"}, "[5]": {"test": "Grinding stability (mortar and pestle)", "format": "physicochemical", "conditions": "for Grinding (mortar & pestle): by hand, 2 and 5 min, XRPD", "description": "Forms A, C, D, and E were subjected to grinding experiments performed using a mortar and pestle by hand. Samples were lightly grounded for 2 minutes then analyzed by XRPD. Material was then returned to the mortar and pestle and grounded for an additional 3 minutes, for a total of 5 minutes of grinding, and re-analyzed by XRPD."}, "[6]": {"test": "Solubility of polymorph Forms (H2O, SGF)", "format": "physicochemical"}, "[7]": {"test": "Stability studies of packaged polymorph Forms (temperature and humidity storage)", "format": "physicochemical", "conditions": "LDPE bags, foil or Mylar bag, HDPE drum; 5° C./60% RH, 25° C./60% RH, 40° C./75% RH; up to 9 months; HPLC, Karl Fischer, XRPD", "source_text": "Polymorphs Form A and Form C were subjected to stability studies where several samples of each given Form were packaged and subjected to the given temperature and humidity conditions as described in Table 10. At each timepoint, a sample for that study was opened and evaluated by HPLC for purity, Karl Fischer for moisture content, and XRPD for confirming the polymorph Form."}, "[8]": {"test": "Stability of the capsules in a container closure", "format": "physicochemical", "description": "The stability of the capsules in a container closure was evaluated at long-term and accelerated conditions. Container closure conditions used were (i) 60-cc high density polyethylene (HDPE), wide mouth, round, white bottle; and (ii) child resistant 33-mm white plastic cap with a heat induction foil inner seal liner. The containers containing the capsules were subjected to the following conditions: (1) −20° C.±5° C.; (2) 5° C.±3° C.; (3) 25° C.±2° C., 60% RH±5% RH; (4) 40° C.±2° C., 75% RH±5% RH; (5) 25° C.±2° C., 60% RH±5% RH, open bottle; (6) 40° C.±2° C., 75% RH±5% RH, open bottle; and (7) 30° C.±2° C., 65% RH±5% RH. Samples of the capsule formulations were analyzed at certain time intervals. The API remained stable at 25° C.±2° C., 60% RH±5% RH and 40° C. 2° C., […]±5% RH for at least 6 months. The API remained stable for at least 6 month at −20° C. 5° C., 5° C. 3° C. when stored in induction-sealed HDPE bottles. The API was stable for at least 6 months at 25° C.±2° C., 60% RH±5% RH and 40° C.±2° C., 75% RH±5% RH in open HDPE bottles."}, "[9]": {"test": "Pharmacokinetics, single oral dose", "format": "in vivo", "conditions": "both sexes, human, plasma, healthy adult subjects, fasting, range over doses", "description": "A randomized, double-blind, placebo-controlled, single and repeat dose study was conducted to evaluate the pharmacokinetics (PK) of a compound of Formula (I) Form C polymorph when orally administered to healthy adult male and female subjects. Subjects received a single oral dose of a compound of Formula (I) Form C polymorph under fasting conditions at a dose of 1 mg, 2 mg, 5 mg, 10 mg, 20 mg, and 30 mg. Blood samples were collected for plasma analysis pre-dose, and at 0.5, 1, 1.5, 2, 3, 4, 6, 9, 12, 16, and 24 hours."}, "[10]": {"test": "Pharmacokinetics, repeat oral dose", "format": "in vivo", "conditions": "both sexes, human, plasma; Day 14; repeat oral dosing 1, 2, 5, 10 mg (QD Days 1 and 14, BID Days 2 through 13); range over doses", "description": "Repeat oral dose administration of a compound of Formula (I) Form C polymorph was administered once per day (QD) in the morning on Days 1 and 14 and twice daily (BID) on Days 2 through 13. Administration of the compound occurred after an overnight fast on Days 1 and 14. Blood samples were collected for plasma analysis on Day 14 following 1, 2, 5 and 10 mg repeat dosing. Blood samples were collected on Day 14 prior to dosing and at 0.5, 1, 1.5, 2, 3, 4, 6, 9, 12, 16 and 24 hours after administration to determine plasma concentrations of the compound of Formula (I) Form C polymorph. Doses of 1 mg, 2 mg, 5 mg, and 10 mg gave a Cmax value range of greater than 10 ng/mL to less than 1,000 ng/mL in a dose dependent manner. In addition doses of 1 mg, 2 mg, 5 mg, and 10 mg gave an AUCtau,ss value range of greater than 100 ng*h/mL to less than 2,500 ng*h/mL, in a dose dependent manner. For the BID regimens, the AUC over a 24 hour interval was obtained by multiplying AUCtau,ss by 2."}, "[11]": {"conditions": "human plasma, 37° C., 5 μM; cited from earlier work"}}, "note": "Counter-ions that a name gives are not always drawn."}
{"smiles": "C[C@H](Nc1ncnc2[nH]cnc12)c1cc2cccc(Cl)c2c(=O)n1-c1ccccc1", "note": "[Bis HCL]", "values": [{"measurement": "Moisture Sorption (wt % water)", "setting": "[1]; 60% RH", "result": "60% RH: 9.9 wt % water"}, {"measurement": "Moisture Sorption (wt % water)", "setting": "[1]; 90% RH", "result": "90% RH: 12.3 wt % water"}, {"measurement": "Solubility in water", "setting": "[2]", "result": 11800, "unit": "µg/mL"}]}
{"smiles": "C[C@H](Nc1ncnc2[nH]cnc12)c1cc2cccc(Cl)c2c(=O)n1-c1ccccc1", "note": "[EDSA]", "values": [{"measurement": "Moisture Sorption (wt % water)", "setting": "[1]; 60% RH", "result": "60% RH: 7.5 wt % water"}, {"measurement": "Moisture Sorption (wt % water)", "setting": "[1]; 90% RH", "result": "90% RH: 28.1 wt % water"}, {"measurement": "Solubility in water", "setting": "[2]", "result": 9400, "unit": "µg/mL"}]}
{"smiles": "C[C@H](Nc1ncnc2[nH]cnc12)c1cc2cccc(Cl)c2c(=O)n1-c1ccccc1", "note": "[Form B, (S)-3-(1-(9H-purin-6-ylamino)ethyl)-8-chloro-2-phenylisoquinolin-1(2H)-one]", "values": [{"measurement": "DVS", "setting": "[1]; @ 60% RH", "result": 1.0, "unit": "% @ 60% RH"}, {"measurement": "DVS", "setting": "[1]; @ 90% RH", "result": 1.7, "unit": "% @ 90% RH"}, {"measurement": "hygroscopicity", "setting": "[1]", "result": "slightly hygroscopic"}, {"measurement": "moisture uptake at 60% RH", "setting": "[1]; 60% RH", "result": 1.0, "unit": "wt %"}, {"measurement": "moisture uptake at 90% RH", "setting": "[1]; 90% RH", "result": 1.7, "unit": "wt %"}, {"measurement": "Thermal stability (60° C.)", "setting": "[3]", "result": "stable after 1"}, {"measurement": "polymorph Form changes by XRPD", "setting": "[3]", "result": "No polymorph Form changes were observed"}]}
{"smiles": "C[C@H](Nc1ncnc2[nH]cnc12)c1cc2cccc(Cl)c2c(=O)n1-c1ccccc1", "note": "[Form C, (S)-3-(1-(9H-purin-6-ylamino)ethyl)-8-chloro-2-phenylisoquinolin-1(2H)-one]", "values": [{"measurement": "DVS", "setting": "[1]; @ 60% RH", "result": 4.2, "unit": "% @ 60% RH"}, {"measurement": "DVS", "setting": "[1]; @ 90% RH", "result": 4.9, "unit": "% @ 90% RH"}, {"measurement": "hygroscopicity", "setting": "[1]", "result": "moderately hygroscopic"}, {"measurement": "moisture uptake at 60% RH", "setting": "[1]; 60% RH", "result": 4.2, "unit": "%"}, {"measurement": "moisture uptake at 90% RH", "setting": "[1]; 90% RH", "result": 4.9, "unit": "%"}, {"measurement": "changes in Form", "setting": "[4]", "result": "no changes in Form"}, {"measurement": "Form by XRPD after grinding", "setting": "[5]; after both 2 and 5 minutes of grinding by hand", "result": "remain consistent"}, {"measurement": "Grinding (mortar & pestle)", "setting": "[5]", "result": "remained Form"}, {"measurement": "Solubility (mg/mL)", "setting": "[6]; H2O", "result": "0.001 (H2O) mg/mL"}, {"measurement": "Solubility (mg/mL)", "setting": "[6]; SGF", "result": "9.133 (SGF) mg/mL"}, {"measurement": "instability of the polymorphic Form", "setting": "[7]", "result": "no indication of instability of the polymorphic Form"}, {"measurement": "time the API remained stable", "setting": "[8]; capsules in HDPE bottle, 25° C.±2° C., 60% RH±5% RH and 40° C. 2° C., 45% RH±5% RH", "result": "at least 6 months"}, {"measurement": "time the API was stable", "setting": "[8]; capsules, 25° C.±2° C., 60% RH±5% RH and 40° C.±2° C., 75% RH±5% RH, open HDPE bottles", "result": "at least 6 months"}, {"measurement": "time the API remained stable", "setting": "[8]; capsules, −20° C. 5° C., 5° C. 3° C., induction-sealed HDPE bottles", "result": "at least 6 month"}, {"measurement": "Cmax", "setting": "[9]; single oral dose 1, 2, 5, 10, 20, 30 mg", "result": "10 to 1500", "unit": "ng/mL"}, {"measurement": "half-life", "setting": "[9]; single oral dose 1 to 30 mg", "result": "3 to 10", "unit": "h"}, {"measurement": "AUC(0-t)", "setting": "[9]; single oral dose 1 to 30 mg, read-out: AUC0-24", "result": "100 to 4000", "unit": "ng·h/mL"}, {"measurement": "AUC", "setting": "[10]", "result": "100 to 2500", "unit": "ng·h/mL"}, {"measurement": "Cmax at 14 days", "setting": "[10]", "result": "10 to 1000", "unit": "ng/mL"}, {"measurement": "Thermal stability (60° C.)", "setting": "[3]", "result": "stable after 1"}, {"measurement": "polymorph Form changes by XRPD", "setting": "[3]", "result": "No polymorph Form changes were observed"}]}
{"smiles": "C[C@H](Nc1ncnc2[nH]cnc12)c1cc2cccc(Cl)c2c(=O)n1-c1ccccc1", "note": "[Form D, (S)-3-(1-(9H-purin-6-ylamino)ethyl)-8-chloro-2-phenylisoquinolin-1(2H)-one]", "values": [{"measurement": "DVS", "setting": "[1]; @ 60% RH", "result": 0.4, "unit": "% @ 60% RH"}, {"measurement": "DVS", "setting": "[1]; @ 90% RH", "result": 1.7, "unit": "% @ 90% RH"}, {"measurement": "hygroscopicity", "setting": "[1]", "result": "slightly hygroscopic"}, {"measurement": "moisture uptake at 60% RH", "setting": "[1]; 60% RH", "result": 0.4, "unit": "wt %"}, {"measurement": "moisture uptake at 90% RH", "setting": "[1]; 90% RH", "result": 1.7, "unit": "wt %"}, {"measurement": "Grinding (mortar & pestle)", "setting": "[5]", "result": "amorphous"}, {"measurement": "Thermal stability (60° C.)", "setting": "[3]", "result": "stable after 1"}, {"measurement": "polymorph Form changes by XRPD", "setting": "[3]", "result": "No polymorph Form changes were observed"}]}
{"smiles": "C[C@H](Nc1ncnc2[nH]cnc12)c1cc2cccc(Cl)c2c(=O)n1-c1ccccc1", "note": "[NDSA]", "values": [{"measurement": "Solubility in water", "setting": "[2]", "result": 300, "unit": "µg/mL"}]}
{"smiles": "C[C@H](Nc1ncnc2[nH]cnc12)c1cc2cccc(Cl)c2c(=O)n1-c1ccccc1", "note": "[NSA]", "values": [{"measurement": "Moisture Sorption (wt % water)", "setting": "[1]; 60% RH", "result": "60% RH: 0.3 wt % water"}, {"measurement": "Moisture Sorption (wt % water)", "setting": "[1]; 90% RH", "result": "90% RH: 0.7 wt % water"}, {"measurement": "Solubility in water", "setting": "[2]", "result": 50, "unit": "µg/mL"}]}
{"smiles": "CC(C)[N+](C)(CCOC(=O)C1c2ccccc2Oc2ccccc21)C(C)C", "note": "[propantheline]", "values": [{"measurement": "plasma stability", "setting": "[11]", "result": "intermediate plasma stability"}]}
{"smiles": "CCCOc1cc(N)ccc1C(=O)OCCN(CC)CC", "note": "[propoxycaine]", "values": [{"measurement": "plasma stability", "setting": "[11]", "result": "low plasma stability"}]}
